Earlier results in patent publication US20240024227A1, “CANNABIS PLANT DERIVED EXTRACELLULAR VESICLES AND THERAPEUTIC METHODS USING THE SAME” (UNIVERSITY OF FLORIDA RESEARCH FOUNDATION, INCORPORATED, priority 2020, published 2024).
Where two headings read alike, the source gives them in different places.

Details: IP approximately 300 μg

## C=C(C)[C@@H]1CCC(C)=C[C@H]1c1c(O)cc(CCCCC)c(C(=O)O)c1O [CBDa, Cannabidiolic acid]
Ethanol Tween-80 solution
  CBDa brain Cmax: 13.2 ng/mg
Vegetable oil
  CBDa brain Cmax: 2.0 ng/mg
Vegetable oil or Tween-80
  time of CBDa brain Cmax: 30 min

## CCCCCc1cc2c(c(O)c1C(=O)O)[C@@H]1C=C(C)CC[C@H]1C(C)(C)O2 [THCa, tetrahydrocannabinolic acid]
  THCa levels in the brain: below detection
